Values of other authors in patent US20080090885A1 (priority 2006, published 2008).

How the values were obtained:
[1] = target: T1, AT1 receptor (Homo sapiens, UniProt P30556)
T1 sequence (P30556 1-359): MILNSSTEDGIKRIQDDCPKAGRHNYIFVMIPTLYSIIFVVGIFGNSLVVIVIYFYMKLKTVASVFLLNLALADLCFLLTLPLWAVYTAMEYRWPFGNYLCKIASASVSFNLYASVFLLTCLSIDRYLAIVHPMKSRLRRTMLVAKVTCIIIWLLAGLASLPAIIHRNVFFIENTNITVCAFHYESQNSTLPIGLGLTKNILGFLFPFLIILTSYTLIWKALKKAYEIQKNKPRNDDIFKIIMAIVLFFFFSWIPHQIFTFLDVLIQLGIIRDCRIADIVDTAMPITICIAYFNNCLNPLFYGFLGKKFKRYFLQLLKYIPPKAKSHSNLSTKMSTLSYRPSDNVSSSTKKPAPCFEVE

[2] = for half-life: in vivo

Row | half-life [2] | oral bioavailability ([2]; oral) | peak plasma levels (time to peak) ([2]; oral) [h] | SMILES | type of AT1 receptor antagonism [1]
1 | 6 to 9 h | – | – | CCCCc1nc(Cl)c(C(=O)O)n1Cc1ccc(-c2ccccc2-c2nn[nH]n2)cc1 [EXP-3174, losartan 5-carboxylic acid] | non-competitive AT1 receptor antagonist
2 | about 2 hours | about 33% | 1 | CCCCc1nc(Cl)c(CO)n1Cc1ccc(-c2ccccc2-c2nn[nH]n2)cc1 [Losartan] | potent, competitive AT1 receptor antagonist
